Laboratory results reported in patent publication US20070060529A1, “ADMINISTRATION OF DIPEPTIDYL PEPTIDASE INHIBITORS” (priority 2005, published 2007).

Tested on: db/db (BKS.Cg-+Lepr^db/+Lepr^db) mice
Experiment: Plasma glucose after 21 days of administration in powder chow, alone or with pioglitazone
Assay type: in vivo
Details: male db/db mice, 21 days in powder chow, feeding condition; average (n=7) ± standard deviation
Method: Male db/db (BKS.Cg-+Lepr^db/+Lepr^db) mice (6 weeks of age, CLEA Japan (Tokyo, Japan)) were divided into 4 groups (n=7 in each group) comprising Group A to Group D. Group A had free access to CE-2 powder chow (CLEA Japan) for 21 days. […] Group C had free access to CE-2 powder chow (CLEA Japan) containing 0.0075% (w/w) of pioglitazone hydrochloride for 21 days. The dose of pioglitazone in Group C was calculated to be 17.7±0.6 (mean±SD) mg/kg body weight/day. […] During 21 days of administration of the powder chow, there were not significant differences in the administration amount of the powder chow in the above 4 groups. After 21 days of administration of the powder chow, blood samples were taken from the orbital veins of the mice by capillary pipette under feeding condition, and plasma glucose levels were enzymatically measured by using Autoanalyzer 7080 (Hitachi, Japan).
The values in the table means average (n=7)±standard deviation.

SMILES | Plasma Glucose [mg/dL]
N#Cc1ccccc1Cn1c(N2CCC[C@@H](N)C2)ncc(F)c1=O [Compound I, 2-[[2-[(3R)-3-Amino-piperidinyl)-5-fluoro-6-oxo-6H-pyrimidinyl]methyl]-benzonitrile] | 412.4 ± 77.5
CCc1ccc(CCOc2ccc(CC3SC(=O)NC3=O)cc2)nc1 (centres unmarked) [Pioglitazone, 5-{[4-(2-(5-ethyl-2-pyridyl)ethoxy)phenyl]-methyl}-thiazolidine-2,4-dione] | 394.4 ± 47.9
